pKd: −log10 of the molar value. “And” between values parts separate entries of the source, which are not always exact repeats. Equal entries are not always repeated. Where two headings read alike, the source gives them in different places.
What was measured:
[1] = design: method as in Frearson et al., 2010; conditions: ref Frearson et al., 2010; cited from earlier work
TbNMT [2] = molecular target: T1, TbNMT (Trypanosoma brucei brucei, UniProt Q388H8); assay: Fragment screen by ligand-observed NMR spectroscopy (STD, water-LOGSY, CPMG) with DDD85646 competition; conditions: fragments at 500 µM, binding and competition with 50 µM DDD85646 in STD
T1 sequence (Q388H8 1-446): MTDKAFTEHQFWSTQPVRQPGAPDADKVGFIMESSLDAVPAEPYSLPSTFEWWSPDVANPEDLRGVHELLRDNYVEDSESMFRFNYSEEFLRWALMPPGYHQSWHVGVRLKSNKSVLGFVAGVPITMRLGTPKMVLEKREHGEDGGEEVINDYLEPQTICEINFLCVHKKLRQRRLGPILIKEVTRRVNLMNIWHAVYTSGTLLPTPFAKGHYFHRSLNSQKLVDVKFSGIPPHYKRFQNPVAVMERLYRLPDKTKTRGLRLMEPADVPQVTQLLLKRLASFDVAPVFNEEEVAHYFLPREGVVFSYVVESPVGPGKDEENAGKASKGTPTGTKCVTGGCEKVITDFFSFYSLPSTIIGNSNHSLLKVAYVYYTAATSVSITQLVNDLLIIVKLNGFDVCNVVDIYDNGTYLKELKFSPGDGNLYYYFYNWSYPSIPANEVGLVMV
Description: TbNMT was prepared at 10 µM in 25 mM sodium phosphate pH 7.4 and 10% deuterated water and the cofactor myristoyl-CoA was added to a final concentration of 50 µM.

LmNMT [3] = molecular target: T2, LmNMT (Leishmania major, UniProt Q4Q5S8); assay: Biolayer interferometry binding, LmNMT; conditions: for increase of affinity in the presence of myristoyl-CoA, LmNMT: with vs without myristoyl-CoA; for LE LmNMT, MYA (absence of cofactor) / LE LmNMT, +MYA: ligand efficiency calculated from K d; for LE LmNMT, MYA (absence of cofactor): absence of myristoyl-CoA; for LE LmNMT, +MYA: presence of myristoyl-CoA
T2 construct: LmNMT (5–421) was cloned into a pET-15b-derived vector; 6xHis followed by TEV cleavage site (N); made in house; host or cells: E. coli Rosetta (DE3)
T2 sequence (Q4Q5S8 entry or part of it): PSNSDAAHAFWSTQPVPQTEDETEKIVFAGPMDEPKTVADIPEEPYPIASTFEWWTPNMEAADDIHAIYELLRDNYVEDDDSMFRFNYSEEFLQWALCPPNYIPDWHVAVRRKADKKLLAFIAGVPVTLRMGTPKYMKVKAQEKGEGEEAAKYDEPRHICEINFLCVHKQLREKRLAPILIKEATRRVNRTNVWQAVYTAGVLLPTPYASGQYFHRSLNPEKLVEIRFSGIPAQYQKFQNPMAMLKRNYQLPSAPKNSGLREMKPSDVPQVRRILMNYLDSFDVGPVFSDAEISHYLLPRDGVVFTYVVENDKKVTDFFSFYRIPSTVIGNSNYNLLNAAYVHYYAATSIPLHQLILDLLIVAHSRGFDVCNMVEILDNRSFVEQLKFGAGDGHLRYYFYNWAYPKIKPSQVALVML
Description: (§1) TbNMT and LmNMT were biotinylated by incubation with NHS-PEG4-biotin (Thermo) in a 1:1 molar ratio for 30 min at room temperature before free biotinylation reagent was removed by passage through a 2 ml Zeba desalt spin column (Thermo). Biolayer interferometry (BLI) measurements were carried out using an Octet RED 384 instrument (ForteBio). TbNMT and LmNMT were immobilized upon superstreptavidin (SSA) biosensors by incubation for 900 s at 25 and 50 µg ml^−1, respectively, before free streptavidin sites were blocked by a 60 s dip into 10 µg ml^−1 biocytin (Tocris). A control set of SSA biosensors were prepared in parallel by blocking the surface with biocytin. A seven-point concentration series was prepared for each fragment molecule in threefold dilution steps from a top concentration of 1 mM. For each set of biosensors, a 60 s baseline in buffer alone was acquired followed by a 60 s association step and a 180 s dissociation step. […] Data were processed and analysed and K d values were determined using the global fitting procedures as implemented in ForteBio Data Analysis Software v.7.0.1.5. The ligand efficiency metric was calculated using LE = −RTlnK d/heavy-atom count (Hopkins et al., 2004[▶]).

TbNMT [4] = molecular target: T1, TbNMT; assay: Biolayer interferometry binding, TbNMT; design: The gene encoding TbNMT was cloned into a pET-15-derived expression vector; 6xHis followed by TEV cleavage site (N); made in house; host or cells: Escherichia coli Rosetta (DE3); conditions: for increase of affinity in the presence of myristoyl-CoA, TbNMT: with vs without myristoyl-CoA; for LE TbNMT, MYA (absence of cofactor) / LE TbNMT, +MYA: ligand efficiency calculated from K d; for LE TbNMT, MYA (absence of cofactor): absence of myristoyl-CoA; for LE TbNMT, +MYA: presence of myristoyl-CoA
Description: as §1

LmNMT [5] = molecular target: T2, LmNMT; assay: Radiometric SPA-based enzyme-inhibition assay, LmNMT; type: biochemical; conditions: single fragment concentration of 0.5 mM
Description: (§2) Activity assays for TbNMT and LmNMT were carried out using a radiometric SPA-based assay as described previously (Frearson et al., 2010[▶]; Brand et al., 2014[▶]). Percentage inhibition (PI) was determined using a fragment concentration of 0.5 mM in the assay.

TbNMT [6] = molecular target: T1, TbNMT; assay: Radiometric SPA-based enzyme-inhibition assay, TbNMT; type: biochemical; design: The gene encoding TbNMT was cloned into a pET-15-derived expression vector; 6xHis followed by TEV cleavage site (N); made in house; host or cells: Escherichia coli Rosetta (DE3); conditions: single fragment concentration of 0.5 mM
Description: as §2

[7] = BLI, absence of the cofactor myristoyl-CoA (MYA), read-out: K d LmNMT, MYA (absence of cofactor)
[8] = BLI, presence of 1 µM myristoyl-CoA (MYA), read-out: K d LmNMT, +MYA
[9] = BLI, absence of the cofactor myristoyl-CoA (MYA), read-out: K d TbNMT, MYA (absence of cofactor)
[10] = BLI, presence of 1 µM myristoyl-CoA (MYA), read-out: K d TbNMT, +MYA

Cc1nn(C)c(C)c1NS(=O)(=O)c1c(Cl)cc(-c2ccnc(N3CCNCC3)c2)cc1Cl [DDD85646]
CNS exposure [1]: lack of CNS exposure

CNCc1cccc(CN2CCOCC2)c1 [Fragment 2]
NMR hit class (TbNMT [2]): class I | pKd (LmNMT [3]; [7]): 3.01 | pKd (LmNMT [3]; [8]): 3.70 | increase of affinity in the presence of myristoyl-CoA, LmNMT (LmNMT [3]; BLI): around fivefold | LE LmNMT, MYA (absence of cofactor) (LmNMT [3]): 0.25 | LE LmNMT, +MYA (LmNMT [3]): 0.31 | pKd (TbNMT [4]; [9]): 3.12 | pKd (TbNMT [4]; [10]): 4.05 | increase of affinity in the presence of myristoyl-CoA, TbNMT (TbNMT [4]; BLI): around fivefold | LE TbNMT, MYA (absence of cofactor) (TbNMT [4]): < 0.3 and 0.26 | LE TbNMT, +MYA (TbNMT [4]): > 0.3 and 0.34 | PI (%) LmNMT (LmNMT [5]): 55% | PI (%) TbNMT (TbNMT [6]): 36%

CNCc1cc(-c2ccccc2)nn1C [Fragment 3]
NMR hit class (TbNMT [2]): class II | pKd (LmNMT [3]; [7]): 3.15 | pKd (LmNMT [3]; [8]): 3.74 | increase of affinity in the presence of myristoyl-CoA, LmNMT (LmNMT [3]; BLI): around fivefold | LE LmNMT, MYA (absence of cofactor) (LmNMT [3]): 0.28 | LE LmNMT, +MYA (LmNMT [3]): 0.34 | pKd (TbNMT [4]; [9]): 3.28 | pKd (TbNMT [4]; [10]): 3.70 | increase of affinity in the presence of myristoyl-CoA, TbNMT (TbNMT [4]; BLI): around fivefold | LE TbNMT, MYA (absence of cofactor) (TbNMT [4]): < 0.3 and 0.30 | LE TbNMT, +MYA (TbNMT [4]): > 0.3 and 0.33 | PI (%) LmNMT (LmNMT [5]): 52% | PI (%) TbNMT (TbNMT [6]): 70%

Nc1ccccc1N1CCNCC1 [Fragment 4]
NMR hit class (TbNMT [2]): class II | pKd (LmNMT [3]): 4.01 | LE LmNMT, MYA (absence of cofactor) (LmNMT [3]): 0.42 | pKd (TbNMT [4]): 4.32 | LE TbNMT, MYA (absence of cofactor) (TbNMT [4]): 0.45 | PI (%) LmNMT (LmNMT [5]): 53%
